The source of these data is patent publication US4935431A, “Substituted 7-amino-thienopyridine derivatives as gastric acid secretion inhibitors” (SmithKline Beckman Intercredit B.V., priority 1988, dated 1990).

For one assay, the target named is T1, H^+ K^+ ATPase (Sus scrofa, UniProt P19156).
T1 construct: Lyophilised gastric vesicles were prepared from pig fundic mucosa; from tissue; host or cells: pig fundic mucosa (lyophilised gastric vesicles)
The assay is described as follows: K^+ -stimulated ATPase activity in lyophilised gastric vesicles (H/K-ATPase). The format is biochemical. To be noted: lyophilised gastric vesicles from pig fundic mucosa, 37° C., pH 7.0, 30 minutes. The method, then: A. H^+ K^+ ATPase Activity The effects of a single high concentration (100 μM) of a compound of structure (I) on K^+ -stimulated ATPase activity in lyophilised gastric vesicles was determined. Preferred compounds of structure (I) were also tested over a range of concentrations to determine IC50 values. (i) Preparation of Lyonhilised Gastric Vesicles (H/K-ATPase) Lyophilised gastric vesicles were prepared from pig fundic mucosa after the method of Keeling et. al. (Biochem. Pharmacol., 34, 2967, 1985). (ii) K^+ -Stimulated ATPase Activity K^+ -stimulated ATPase activity was determined at 37° C. in the presence of the following: 10 mM Pipes/Tris buffer pH 7.0, 2 mM MgSO4, 1 mM KCl, 2 mM Na2 ATP and 3 μg protein/ml lyophilised gastric vesicles. After incubation for 30 minutes, the inorganic phosphate hydrolysed from ATP was determined by the method of Yoda and Hokin (Biochem. Biophys. Res. Commun. 40, 880, 1970). Compounds of structure (I) were dissolved in dimethylsulphoxide which up to the highest concentration used had no effect on K^+ -stimulated ATPase activity. The effect of the highest concentration of each compound of structure (I) on the recovery of a standard amount of inorganic phosphate was also determined.

Assay [1] has as its system pentagastrin stimulated gastric acid secretion. Kind of assay: Rat Lumen Perfused Stomach (Pentagastrin Stimulated Gastric Acid Secretion). The format is in vivo. Conditions: for RAT GS % inhibition @ 10 μmol/kg: i.v.; for ED50: iv, read-out: RAT GS ED50. The source says:
B. Rat Lumen Perfused Stomach (Pentagastrin Stimulated Gastric Acid Secretion)
Using a modification of the procedure described by Ghosh & Schild (Br. J. Pharmacology, 13, 54, 1958), the compounds of the following examples were found on i.v. administration to cause an inhibition of pentagastrin stimulated gastric acid secretion as indicated in the following table. Results are given as % inhibition at 10 μmole/kg or ED50 (μM/kg): […]

SMILES strings stand for the structures. Counter-ions that a name gives are not always drawn.

T1 sequence (P19156 2-1034 limits assumed): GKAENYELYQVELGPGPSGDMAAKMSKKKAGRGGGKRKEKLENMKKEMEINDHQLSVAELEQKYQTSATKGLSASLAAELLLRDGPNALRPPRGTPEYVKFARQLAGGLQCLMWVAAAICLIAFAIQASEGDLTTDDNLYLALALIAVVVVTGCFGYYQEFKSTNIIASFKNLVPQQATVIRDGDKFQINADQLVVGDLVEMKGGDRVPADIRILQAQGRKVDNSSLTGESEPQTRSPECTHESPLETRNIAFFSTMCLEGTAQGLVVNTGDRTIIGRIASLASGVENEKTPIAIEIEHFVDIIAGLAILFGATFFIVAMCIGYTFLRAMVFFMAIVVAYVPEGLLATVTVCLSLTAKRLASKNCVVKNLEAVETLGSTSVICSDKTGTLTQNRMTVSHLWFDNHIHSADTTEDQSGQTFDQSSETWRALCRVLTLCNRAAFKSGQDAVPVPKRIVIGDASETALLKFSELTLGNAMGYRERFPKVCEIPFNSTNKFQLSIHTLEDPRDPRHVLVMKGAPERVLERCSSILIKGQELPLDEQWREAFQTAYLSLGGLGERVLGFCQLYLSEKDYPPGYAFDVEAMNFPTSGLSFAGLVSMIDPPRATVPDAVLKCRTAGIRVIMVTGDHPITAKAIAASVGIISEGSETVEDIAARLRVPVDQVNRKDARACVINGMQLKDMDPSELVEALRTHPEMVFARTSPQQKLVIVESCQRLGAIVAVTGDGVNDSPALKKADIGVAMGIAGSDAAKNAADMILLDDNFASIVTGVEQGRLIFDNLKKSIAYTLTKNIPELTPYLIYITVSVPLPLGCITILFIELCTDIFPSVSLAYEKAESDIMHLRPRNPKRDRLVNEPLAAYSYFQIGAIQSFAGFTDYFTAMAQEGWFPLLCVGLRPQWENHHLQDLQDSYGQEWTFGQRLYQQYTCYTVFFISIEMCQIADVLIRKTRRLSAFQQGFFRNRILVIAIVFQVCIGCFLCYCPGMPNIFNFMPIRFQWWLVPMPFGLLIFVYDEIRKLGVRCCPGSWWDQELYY
T1 sequence (P18434 whole entry partner): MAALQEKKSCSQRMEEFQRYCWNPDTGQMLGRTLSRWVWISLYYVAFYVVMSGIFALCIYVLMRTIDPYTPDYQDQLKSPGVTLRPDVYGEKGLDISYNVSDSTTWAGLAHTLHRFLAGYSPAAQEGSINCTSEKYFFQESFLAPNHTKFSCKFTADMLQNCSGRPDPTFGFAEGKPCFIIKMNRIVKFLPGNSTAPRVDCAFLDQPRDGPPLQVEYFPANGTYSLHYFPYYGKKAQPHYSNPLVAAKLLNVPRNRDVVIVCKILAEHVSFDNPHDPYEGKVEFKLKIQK

The term IC50 denotes the concentration that inhibits the measured activity by half. With `CCOC(=O)c1cnc2sccc2c1Nc1ccccc1C` [Example 1, Ethyl 4-(2-methylohenylamino)thieno[2,3-b]pyridine-5-carboxylate], the IC50 against H^+ K^+ ATPase is 3000 nM. Besides, the “RAT GS % inhibition @ 10 μmol/kg” value in assay [1] stood at 32%.

For `CCOC(=O)c1cnc2sccc2c1NCc1ccccc1` [Example 2, Ethyl 4-benzylaminothieno[2,3-b]pyridine-5-carboxylate], the IC50 at H^+ K^+ ATPase was determined as 9710 nM. The “RAT GS % inhibition @ 10 μmol/kg” value in assay [1] turned out to be 13%.

In general, ED50 refers to the midpoint of the dose-response relation. The compound `CCOC(=O)c1cnc2ccsc2c1Nc1ccccc1C` [Example 3, Ethyl 7-(2-methylphenylamino)thieno[3,2-b]pyridine-6-carboxylate] came in with an IC50 against H^+ K^+ ATPase of 620 nM. Further, the ED50 in assay [1] amounted to 9.7 µmol/kg.

In the case of `CCOC(=O)c1cnc2ccsc2c1NCc1ccccc1` [Example 4, Ethyl 7-benzylaminothieno[3,2-b]pyridine-6-carboxylate], the IC50 against H^+ K^+ ATPase was 4300 nM. Further, in assay [1], the “RAT GS % inhibition @ 10 μmol/kg” value came to 19%.

Turning to `CCOC(=O)c1cnc2c(C)csc2c1Nc1ccccc1C` [Example 5, Ethyl 3-methyl-7-(2-methylphenylamino)thieno[3,2-b]-pyridine-6-carboxylate], the ED50 in assay [1] came to 11.2 µmol/kg.

Consider `CCOC(=O)c1cnc2c(C)csc2c1NCc1ccccc1` [Example 6, Ethyl 3-methyl-7-benzylaminothieno[3,2-b]pyridine-6-carboxylate], for which the “RAT GS % inhibition @ 10 μmol/kg” value in assay [1] is listed as 31%.

With `CCOC(=O)c1cnc2c(OC)csc2c1Nc1ccccc1C` [Example 7, Ethyl 3-methoxy-7-(2-methylohenylamino)thieno[3,2-b] pyridine-6-carboxylate], the IC50 on H^+ K^+ ATPase came out at 21000 nM.

Compound `CCCC(=O)c1cnc2c(OC)csc2c1Nc1ccccc1C` [Example 9, 6-Butyryl-7-(2-methylphenylamino)-3-methoxythieno[3,2-b]pyridine] registered an IC50 against H^+ K^+ ATPase of 13000 nM.

Take `CCCC(=O)c1cnc2ccsc2c1Nc1ccccc1C` [Example 11, 6-Butyryl-7-(2-methylphenylamino)thieno[3,2-b]pyridine]: on H^+ K^+ ATPase, half-maximal inhibition (IC50) was put at 880 nM. Moreover, the “RAT GS % inhibition @ 10 μmol/kg” value in assay [1] is reported as 55%.

In turn, `CCCC(=O)c1cnc2ccsc2c1Nc1ccc(F)cc1C` [Example 12, 6-Butyryl-7-(4-fluoro-2-methylphenylamino)thieno[3,2-b]-pyridine] displayed an IC50 against H^+ K^+ ATPase of 4300 nM. Further, in assay [1], the “RAT GS % inhibition @ 10 μmol/kg” value amounted to 38%.

With `CCCC(=O)c1cnc2ccsc2c1Nc1ccccc1CC` [Example 13, 6-Butyryl-7-(2-ethylphenylamino)thieno[3,2-b]pyridine], the IC50 at H^+ K^+ ATPase turned out to be 1100 nM. For the same compound, in assay [1], the ED50 amounted to 3.32 µmol/kg.

The compound `CCCC(=O)c1cnc2ccsc2c1Nc1ccccc1CCC` [Example 14, 6-Butyryl-7-(2-propylphenylamino)thieno[3,2-b]pyridine hydrochloride] came in with an IC50 on H^+ K^+ ATPase of 1200 nM.

Turning to `CCCC(=O)c1cnc2ccsc2c1Nc1ccccc1C(C)C` [Example 15, 6-Butyryl-7-(2-isopropylphenylamino)thieno[3,2-b]pyridine], the IC50 on H^+ K^+ ATPase is 860 nM. Further, the “RAT GS % inhibition @ 10 μmol/kg” value in assay [1] was 62%.

As to `CCCC(=O)c1cnc2ccsc2c1Nc1ccc(O)cc1C` [Example 16, 6-Butyryl-(4-hydroxy-2-methylphenylamino)thieno[3,2-b]-pyridine], the IC50 at H^+ K^+ ATPase stood at 330 nM. The ED50 in assay [1] was found to be 4.03 µmol/kg.
